Several values for one entry are separate records, joined by “and”; a condition that tells them apart may be missing. Equal values may be shown once. Inconclusive results are not listed.
System: Nude mice, LX-1 lung xenograft intrarenal, tumor weight T/C
Assay: NCI In Vivo Anticancer Drug Screen. Data for tumor model Human Lung LX-1 Xenograft (intrarenal inoculation) in NU/NU BALB/C (nude) mice
Conditions: endpoint: mean tumor weight change, higher = larger tumour
Description: The antitumor activity of compounds was measured in mice bearing transplantable tumors. Survival or tumor size were measured and the results are expressed as the measurement made in the treated group (T) divided by the measurement made in the vehicle treated control group (C). The tumor model used in this assay is Human Lung LX-1 Xenograft (intrarenal inoculation) in NU/NU BALB/C (nude) mice

Compound: CCCCCCCCNc1cc2c3c(c1)CCCN3CCC2
- T/C (dose: 6.0 mg/kg/injection, schedule: Q04DX003 (sc), vehicle: Klucel (hydroxypropylcellulose) (HPC)): 155 % of control
- T/C (dose: 12.0 mg/kg/injection, schedule: Q04DX003 (sc), vehicle: Klucel (hydroxypropylcellulose) (HPC)): 118 % of control
- T/C (dose: 24.0 mg/kg/injection, schedule: Q04DX003 (sc), vehicle: Klucel (hydroxypropylcellulose) (HPC)): 106 % of control

Compound: CCCNC1=C(C)C(=O)C2=C(C1=O)[C@H](COC(N)=O)[C@]1(OC)[C@@H]3N[C@@H]3CN21
- T/C (dose: 12.0 mg/kg/injection, schedule: Q04DX003 (sc), vehicle: saline + alcohol): 52 % of control
- T/C (dose: 24.0 mg/kg/injection, schedule: Q04DX003 (sc), vehicle: saline + alcohol): 8 % of control

Compound: Cc1ccc(S(=O)(=O)NC(=O)C2C(=O)CC3(CCCCC3)CC2=O)cc1
- T/C (dose: 300.0 mg/kg/injection, schedule: Q04DX003 (sc), vehicle: Klucel (hydroxypropylcellulose) (HPC)): 122 % of control
- T/C (dose: 600.0 mg/kg/injection, schedule: Q04DX003 (sc), vehicle: Klucel (hydroxypropylcellulose) (HPC)): 101 % of control
- T/C (dose: 2400.0 mg/kg/injection, schedule: Q04DX003 (sc), vehicle: Klucel (hydroxypropylcellulose) (HPC)): 84 % of control

Compound: Nc1ncn(C2OC(CO)C(O)C2O)c(=O)n1 (centres undefined)
- T/C (dose: 5.0 mg/kg/injection, schedule: Q04DX003 (sc), vehicle: saline): 47 % of control
- T/C (dose: 10.0 mg/kg/injection, schedule: Q04DX003 (sc), vehicle: saline): 39 % of control
- T/C (dose: 100.0 mg/kg/injection, schedule: Q04DX003 (sc), vehicle: saline): 34 % of control
- T/C (dose: 200.0 mg/kg/injection, schedule: Q04DX003 (sc), vehicle: saline): 18 % of control and 28 % of control
- T/C (dose: 400.0 mg/kg/injection, schedule: Q04DX003 (sc), vehicle: saline): 15 % of control and 32 % of control
- T/C (dose: 1600.0 mg/kg/injection, schedule: Q04DX003 (sc), vehicle: saline): -72 % of control

Compound: [Cl][Hg][Cl]
- T/C (dose: 2.5 mg/kg/injection, schedule: Q04DX003 (ip), vehicle: saline): 92 % of control
- T/C (dose: 5.0 mg/kg/injection, schedule: Q04DX003 (ip), vehicle: saline): 82 % of control
- T/C (dose: 10.0 mg/kg/injection, schedule: Q04DX003 (ip), vehicle: saline): 58 % of control

Compound: CN=NN(C)C(=O)NC
- T/C (dose: 6.25 mg/kg/injection, schedule: Q04DX003 (ip), vehicle: saline): 71 % of control and 82 % of control
- T/C (dose: 12.5 mg/kg/injection, schedule: Q04DX003 (ip), vehicle: saline): 28 % of control and 45 % of control
- T/C (dose: 25.0 mg/kg/injection, schedule: Q04DX003 (ip), vehicle: saline): 6 % of control
- T/C (dose: 50.0 mg/kg/injection, schedule: Q04DX003 (ip), vehicle: saline): -34 % of control and -18 % of control
- T/C (dose: 108.0 mg/kg/injection, schedule: Q04DX003 (ip), vehicle: saline): 5 % of control
- T/C (dose: 180.0 mg/kg/injection, schedule: Q04DX003 (ip), vehicle: saline): 4 % of control

Compound: CC(=O)OCN(C)C=O
- T/C (dose: 300.0 mg/kg/injection, schedule: Q01DX010 (sc), vehicle: water): 65 % of control
- T/C (dose: 600.0 mg/kg/injection, schedule: Q01DX010 (sc), vehicle: water): 52 % of control
- T/C (dose: 1200.0 mg/kg/injection, schedule: Q01DX010 (sc), vehicle: water): 40 % of control
- T/C (dose: 2400.0 mg/kg/injection, schedule: Q01DX010 (sc), vehicle: water): 45 % of control

Compound: C[Si](C)(C)O/C=C1\CCCCC1=O
- T/C (dose: 100.0 mg/kg/injection, schedule: Q04DX003 (sc), vehicle: saline with Tween-80): 95 % of control
- T/C (dose: 200.0 mg/kg/injection, schedule: Q04DX003 (sc), vehicle: saline with Tween-80): 92 % of control
